{
  "source": "patent US20220372491A1",
  "about": "“TREATMENT OF RENAL CYSTIC DISEASE” (MONASH UNIVERSITY, priority 2019, published 2022)",
  "key": {"Inpp5e^Δ/Δ mice": {"system": "Inpp5e^Δ/Δ mice", "test": "Oral Alisertib treatment of Inpp5e^Δ/Δ mice (Joubert Syndrome associated PKD model)", "format": "in vivo, mouse", "protocol": "(§1) Alisertib treatment was performed based on previously published protocols (Nikonova et al., (2014) PNAS 111:12859-12864; Nikonova (2015) Frontiers Oncol. 5:228), as follows: Starting at P9 Inpp5e^Δ/Δ and Inpp5e^Δ/Δ mice were treated once daily for 5 days with Alisertib delivered orally by pipette in a suspended solution with a final composition of 3.6 mg/ml Alisertib ([…], Selleck Chemicals) in 10% 2-hydroxypropyl-β-cyclodextrin ([…]-10ML, Sigma-Aldrich) with 1% (vol/vol) sodium bicarbonate ([…]-100ML, Sigma-Aldrich) and 5% glucose (49163-100ML, Sigma-Aldrich). Mice were dosed with a volume to deliver Alisertib at 10 mg/kg. Mouse body weights were recorded daily. Solutions were stored at 4 degrees for up to 1 month. […] Mice were then given 2 recovery days before being sacrificed at P15. This time frame was selected as it corresponded to an exponential rise in cyst number in Inpp5e^Δ/Δ mice. Aurka^Δ/Δ and Inpp5e^Δ/Δ; Aurka^Δ/Δ treatment groups were also included to determine the AURKA specificity of any phenotypes observed given Alisertib's broad drug targeting profile. Mice were culled via cervical dislocation or decapitation, as most appropriate for their age following ethical guidelines. Procedures were all conducted by ethically approved and trained personnel. Mice were measured for body weight, with ear tissue, urine and kidneys collected. Ear tissue and urine was stored at -20 degrees. Newborn and P4 kidneys were fixed whole in 4% PFA for 16 hrs at 4 degrees, while the kidney capsule membrane was removed from older mouse kidneys, with the kidney cut into halves and fixed in 10% NBF for 16 hrs at room temperature. Half the kidney samples were sent for histological processing and the other half were snap frozen and stored at -80 degrees until processed for RNA, alpha analysis and/or western blotting. Kidney tissues were paraffin imbedded and sectioned at 4 μm for most analysis with the exception of being sectioned at 10 μm for cilia analysis. Antigen retrieval was performed in Citrate buffer pH6 using Tefal pressure cooker or using a DAKO […] system as indicated. Antibody staining was performed as described elsewhere (Cottle et al., (2013) Cell reports, 3: 427-441), except triton x-100 was included in blocking buffers, and cover slips mounted using Prolong Gold (Invitrogen). Antibodies and stains are listed below. Imaging was using an Aperio brightfield and fluorescent scanners (MHP), Olympus Fluoview 500 (Biochemistry Imaging Suite), Nikon C2 or Leica SP8 confocal microscope (MMI). All quantifications with the exception of Nanostring analysis and Chi squared tests for analysis of mendelian ratios, were analyzed using the unpaired Student's t-test assuming unequal variance in Microsoft Excel and P≤0.05 values were considered significant. One or two tailed tests were selected as appropriate for hypothesis. Values presented are Mean±Standard Error of the Mean (S.E.M). 2K/BW % was calculated as the combined kidney weight over total body weight percentage. Albumin Creatinine Ratios (ACR) were calculated as μg Albumin over mg of Creatinine. Cyst identity was measured as a proportion of cyst epithelial area for each marker out of total sum of cyst epithelial areas of all markers (adjusted for marker co-localisation). Cystic index % is calculated as the proportion of cystic space occupied out of total kidney area in DBA-stained kidney longitudinal cross-sections. Cyst number reflects the average number of cysts counted per DBA-stained longitudinal kidney cross section. Cyst size is the average cross-sectional cyst size (mm^2) of cysts sampled from DBA-stained kidney longitudinal cross sections. Due to escape of Cre activity at the Aurka locus in cysts, unless otherwise indicated references to Inpp5e^Δ/Δ; Aurka^Δ/Δ immunostains and their quantifications reflect non-cystic regions throughout this study."}, "[1]": {"system": "Inpp5e^Δ/Δ; Aurka^Δ/Δ mice", "test": "Oral Alisertib treatment of Inpp5e^Δ/Δ; Aurka^Δ/Δ (double mutant) mice", "format": "in vivo, mouse", "protocol": "as §1"}, "mIMCD3 cells": {"system": "mIMCD3 cells", "test": "Western blots and densitometry of mIMCD3 cell lysates treated with Alisertib", "format": "cell-based, mouse", "protocol": "mIMCD3 cells were grown as previously described (Plotnikova et al., (2015) J. Cell Sci. 128: 364-372). Using a hemocytometer, mIMCD3 cells were seeded in 6 well dishes at 1.3×10^5 cells per well in growth media and incubated overnight at 37° C. in 5% CO2. Lipofectamine 3000 Reagent kit (Invitrogen) was used for plasmid transfection according to manufacturer's protocol (3.75 μl of Lipofectamine 3000, 2.5 μg DNA and 5 μl of P3000 reagent in each well). siRNA transfections were also performed with Lipofectamine 3000 (Invitrogen) according to manufacturer's protocol (0.75 μl of Lipofectamine 3000, 25 pmol siRNA in each well). Plasmids included pCGN (HA-tag)^48, pCGN-HA-AURKA (gift from Olga Plotniknova), and pCGN-HA-AURKA KD (made in this study using Q5 Site-Directed Mutagenesis Kit NEB.E0554S according to manufacturer's protocol to contain the K162R variant described for pCDNA3.1-mRFP-AURKA K162R). All plasmids were prepared with Qiagen plasmid midiprep kits. siRNAs were All Stars negative control siRNA (S103650318, Qiagen) and Mm_Aurka_1 Flexitube siRNA (S100908803, Qiagen). Alisertib (10 mM in DMSO, S1133, SelleckChem) was added to media at 1 μM final concentration where indicated.\nFollowing ˜16 hrs after plasmid and siRNA transfections, fresh growth media was placed on mIMCD3 cells and wells harvested up to 24 hrs later. Alternatively, for serum-starvation conditions, 0.5% serum containing was placed on mIMCD3 cells and wells harvested after 24 hrs. For serum-restimulation conditions mIMCD3 cells were first placed in 0.5% serum media for 24 hrs before addition of fresh growth media for up to 20 mins before harvest. For immunofluorescence experiments, mIMCD3 cells were grown on collagen I-coated 22×22 mm coverslips and processed as described in Cottle et al., (2007) J. Cell Sci. 120: 1423-1435 and Wiradjaja et al., (2013) Disease models & mechanisms, 6: 1426-1433).\nTissue extracts were prepared in AlphaLISA Surefire Ultra lysis buffer. Cell extracts were prepared in 1% Triton X-100 in Tris-buffered saline pH7.4 with Roche complete mini protease and PhosSTOP inhibitor tablets as described above. Immunoblotting was performed using standard techniques, with antibodies listed below. Densitometry values were determined using ImageJ software and occasional extreme outliers more than 2 standard deviations from the mean omitted."}, "[2]": {"test": "Solubility of Alisertib in the oral dosing vehicle", "format": "physicochemical", "conditions": "3.6 mg/ml in 10% 2-hydroxypropyl-β-cyclodextrin, 1% sodium bicarbonate, 5% glucose", "protocol": "Alisertib treatment was performed based on previously published protocols (Nikonova et al., (2014) PNAS 111:12859-12864; Nikonova (2015) Frontiers Oncol. 5:228), as follows: Starting at P9 Inpp5e^Δ/Δ and Inpp5e^Δ/Δ mice were treated once daily for 5 days with Alisertib delivered orally by pipette in a suspended solution with a final composition of 3.6 mg/ml Alisertib (S1133, Selleck Chemicals) in 10% 2-hydroxypropyl-β-cyclodextrin (H5784-10ML, Sigma-Aldrich) with 1% (vol/vol) sodium bicarbonate (S8761-100ML, Sigma-Aldrich) and 5% glucose (49163-100ML, Sigma-Aldrich). Mice were dosed with a volume to deliver Alisertib at 10 mg/kg. Mouse body weights were recorded daily. Solutions were stored at 4 degrees for up to 1 month. […] Mice were then given 2 recovery days before being sacrificed at P15. This time frame was selected as it corresponded to an exponential rise in cyst number in Inpp5e^Δ/Δ mice. Aurka^Δ/Δ and Inpp5e^Δ/Δ; Aurka^Δ/Δ treatment groups were also included to determine the AURKA specificity of any phenotypes observed given Alisertib's broad drug targeting profile."}, "[3]": {"system": "adult mouse models of ADPKD", "conditions": "cited from earlier work"}, "[4]": {"conditions": "Inpp5e^Δ/Δ mice, 10 mg/kg orally P9 to P13, P15, vs vehicle"}, "[5]": {"conditions": "double mutant mice, relative to vehicle controls"}, "[6]": {"conditions": "mice in which Aurka had been predominantly deleted, 10 mg/kg orally P9 to P13, P15"}, "[7]": {"conditions": "1 μM Alisertib, 48 hrs, growth conditions"}},
  "data": [
    {"smiles": "COc1cc(Nc2ncc3c(n2)-c2ccc(Cl)cc2C(c2c(F)cccc2OC)=NC3)ccc1C(=O)O", "note": "[Alisertib]", "values": [
      {"measurement": "levels of nuclear localised active p53 in collecting duct cells", "setting": "Inpp5e^Δ/Δ mice; 10 mg/kg orally once daily P9 to P13, tissue at P15", "value": "increased levels of nuclear localised active p53"},
      {"measurement": "cilia number (% ciliated collecting duct cells)", "setting": "Inpp5e^Δ/Δ mice; Inpp5e^Δ/Δ kidneys, vs vehicle", "value": "markedly reduced cilia number"},
      {"measurement": "co-expression of high levels of AURKA and AKT pT308 in collecting duct cells", "setting": "Inpp5e^Δ/Δ mice; Inpp5e^Δ/Δ kidneys, vs vehicle", "value": "increased co-expression of high levels of AURKA and AKT pT308"},
      {"measurement": "cyst size", "setting": "Inpp5e^Δ/Δ mice; [4]", "value": "reduced cyst size"},
      {"measurement": "kidney to body weight ratio and kidney size", "setting": "Inpp5e^Δ/Δ mice; [4]", "value": "marked reduction in kidney to body weight ratio and kidney size"},
      {"measurement": "number of cysts", "setting": "Inpp5e^Δ/Δ mice; [4]", "value": "increased in the number of cysts"},
      {"measurement": "hair loss", "setting": "Inpp5e^Δ/Δ mice; all Alisertib-treated mouse cohorts vs vehicle, 10 mg/kg orally once daily P9 to P13, tissue at P15", "value": "hair loss observed in all treated mouse cohorts"},
      {"measurement": "cystic index %", "setting": "Inpp5e^Δ/Δ mice; cystic genotypes Inpp5e^Δ/Δ and Inpp5e^Δ/Δ, Aurka^Δ/Δ, vs vehicle", "value": "no Alisertib-induced changes"},
      {"measurement": "AKT pT308 expression", "setting": "[1]; [5]", "value": "did not show reduced ciliation or AKT pT308 expression"},
      {"measurement": "ciliation", "setting": "[1]; [5]", "value": "did not show reduced ciliation"},
      {"measurement": "cyst index", "setting": "[1]; [6]", "value": "No change"},
      {"measurement": "cyst number", "setting": "[1]; [6]", "value": "No change"},
      {"measurement": "cyst size", "setting": "[1]; [6]", "value": "No change"},
      {"measurement": "kidney to body weight ratio", "setting": "[1]; [6]", "value": "No change"},
      {"measurement": "AURKA protein level", "setting": "mIMCD3 cells; 1 μM Alisertib, 48 hrs of exposure, growth conditions", "value": "two-fold increase in AURKA protein"},
      {"measurement": "AKT phosphorylation at S473 (AKT pS473/total AKT expression ratio)", "setting": "mIMCD3 cells; [7]", "value": "but not S473"},
      {"measurement": "AKT phosphorylation at T308 (AKT pT308/total AKT expression ratio)", "setting": "mIMCD3 cells; [7]", "value": "increasing AKT phosphorylation at T308"},
      {"measurement": "total AKT", "setting": "mIMCD3 cells; [7]", "value": "modestly reducing total AKT"},
      {"measurement": "rebound increase of AKT T308 phosphorylation", "setting": "mIMCD3 cells; 24 hrs of Alisertib exposure", "value": "not observed following 24 hrs of Alisertib exposure"},
      {"measurement": "AURKA T288 phosphorylation ratio", "setting": "mIMCD3 cells; Alisertib or vehicle for 48 hrs under growth conditions", "value": "reduces the AURKA T288 phosphorylation ratio"},
      {"measurement": "solubility in dosing vehicle", "setting": "[2]", "value": "largely insoluble"},
      {"measurement": "cystic disease", "setting": "[3]", "value": "exaggerates cystic disease"}
    ]}
  ]
}
